The text below walks through data of paper PMC8151848, “Tambjamines and Prodiginines: Biocidal Activity against Trypanosoma cruzi” (Pharmaceutics, 2021).

Like-named read-outs stand apart in the source and are kept apart here.

Data set [1] has as its system murine L-929 fibroblasts (NCTC clone 929). Kind of data set: Cytotoxicity assay (resazurin) in L-929 fibroblasts. The data set is classed as cell-based, mouse. An excerpt: (§1) Mouse L-929 fibroblasts (NCTC clone 929, ECACC 88102702) were used for both drug toxicity and infection assays. Cell line was obtained from Dr. Concepció Soler, Dept. Pathology & Experimental therapeutics, Faculty of Medicine and Health Sciences, University of Barcelona, Spain. Human hepatocarcinoma Hep G2 cells (American Type Culture Collection (ATCC HB-8065)) were employed only in the drug toxicity assays and were obtained from Dr. Neus Agell, Cell Biology Research Group, Faculty of Medicine and Health Sciences, University of Barcelona, Spain.
(§2) Cells were seeded by trypsinization in 96-well microplates (L-929: 4 × 10^3 cells/well; Hep G2: 1.5 × 10^4 cells/well) and incubated for 24 h at 37 °C to allow cell attachment. On the following day, the medium was discarded and replaced with a fresh medium containing the different concentrations of the drugs. Hep G2 cells were treated with concentrations of 100, 10, and 1 µM of the different drugs, while L-929 cells were treated with a wider range of concentrations in order to calculate the IC50 value (the drug concentration that inhibits 50% of cell growth). Medium, growth, and drug blanks were used in each test as controls. Plates were incubated again for another 24 h. After treatment, 20 µL of resazurin diluted in 1X phosphate-buffered saline (PBS; Sigma Aldrich) was added at a final concentration of 70 µM. The plates were incubated for another 24 h, after which fluorescence was measured in a microplate reader (FLUOstar OPTIMA, BMG LABTECH GmbH, Ortenberg, Germany) at an excitation wavelength of 530 nm and an emission wavelength of 590 nm. Each concentration was tested in triplicate and the experiments were repeated three times independently. Results indicated the percentage of toxicity (% T value). (3) % Toxicity=100−(AE−AEB)/(AC−ACB)×100 where AE is the absorbance of the experimental group, AEB the absorbance of the drug blank, AC the absorbance of the untreated cells, and ACB the absorbance of the culture medium blank. For the L-929 fibroblasts, the IC50 values (the drug concentration that inhibits 50% of cell growth) were calculated for each compound using the GraphPad Prism software.

Data set [2] has as its system human hepatocarcinoma cells (Hep G2). Put plainly: Cytotoxicity assay (resazurin) in Hep G2 cells. Type of data set: cell-based. The following applies: for Cytotoxicity (% cell growth inhibition) at 1 µM ± SD: Hep G2, 1 µM.
Source text: as §1
as §2, with “Hep G2 cells were treated with concentrations of 100, 10, and 1 µM of the different drugs, while L-929 cells were treated with a wider range of concentrations in order to calculate the IC50 value (the drug concentration that inhibits 50% of cell growth).” left out, “For the L-929 fibroblasts, the IC50 values (the drug concentration that inhibits 50% of cell growth) were calculated for each compound using the GraphPad Prism software.” left out

Data set [3] concerns epimastigotes of T. cruzi (CL strain, clone B5). Put plainly: Epimastigote susceptibility assay (monotherapy). The data set is classed as cell-based, Trypanosoma cruzi. The procedure:
The CL-B5 strain was stably transfected with the Escherichia coli β-galactosidase gene (lacZ) and routinely maintained in exponential growth by weekly passages. Trypomastigotes of the CL-B5 strain were obtained as previously reported.
The screening assays were performed in 96-well microplates (WWR Int LLC) containing serially diluted concentrations of each compound and seeded with 2.5 × 10^5 epimastigotes/mL harvested during the exponential growth phase. Growth, medium, and drug blanks were used in each assay as controls. An internal control of the reference drug, benznidazole, was also included. After 72 h at 28 °C, 50 µL of the substrate chlorophenol red-β-D-galactopyranoside (CPRG; Roche) diluted in 0.9% Triton X-100 solution (EMD, Darmstadt, Germany) were added at a final concentration of 200 µM. Then, after 3 h at 37 °C, measurements were performed in a scanning multiwell spectrophotometer (ELISA Multiskan Reader, BioTek Instruments, Inc., Winooski, VT, USA) at 595 nm. Each concentration was tested in triplicate and the experiments were performed three times independently. The efficacy of the compounds was calculated by determining the percentage of epimastigote growth (% EG value) as follows:(1) % Epimastigote growth=(AE−AEB)/(AC−ACB)×100 where AE is the absorbance of the experimental group, AEB the absorbance of the drug blank, AC the absorbance of the control group, and ACB the absorbance of the culture medium blank. The IC50 values (the drug concentration that eliminates 50% of the parasites) were determined for each compound using the GraphPad Prism software (Version 5.0.0 for Windows, GraphPad Software, San Diego, CA, USA).

Setting [4] is: Mus musculus, L929, read-out: IC50 (µM) L-929 cell growth inhibition.
[5] abbreviates: Homo sapiens, HepG2, read-out: IC50 (µM) Hep G2 cell growth inhibition.
Where [6] appears, read: IC50 for L-929 fibroblasts / IC50 for T. cruzi epimastigotes.
Setting [7] is: Trypanosoma cruzi, CLB strain, 72 h at 28 °C, mean ± SD, read-out: IC50 (µM) in epimastigotes of T. cruzi.

Turning to `O=C(Cn1ccnc1[N+](=O)[O-])NCc1ccccc1` [Benznidazole, reference compound], the IC50 was 1372.3 ± 0.5 µM in data set [1] (setting [4]), over 100 µM in data set [2] (setting [5]) and 19 ± 7.07 µM in data set [3] (setting [7]). For the same molecule, the “Selectivity index (SI), Epimastigotes” value in data set [3] (setting [6]) is on record as 72.37.

With `CCc1c(-c2ccc[nH]2)[nH]c(/C=N/C2CCCCC2)c1C` [MM3], the IC50 in data set [1] (setting [4]) was found to be 12.2 ± 0.28 µM; in data set [2] (setting [5]), 46 ± 8.15 µM; in data set [3] (setting [7]) it was 4.52 ± 1.43 µM. In data set [3] (setting [6]), the “Selectivity index (SI), Epimastigotes” value is 2.70.

Regarding `CCc1c(-c2ccc[nH]2)[nH]c(/C=N/c2ccc(C(C)(C)C)cc2)c1C` [MM4], the values for the IC50 in data set [1] (setting [4]), in data set [2] (setting [5]) and in data set [3] (setting [7]) were 14 ± 1.28 µM, 52.5 ± 9.21 µM and 5.08 ± 0.62 µM, respectively. The “Selectivity index (SI), Epimastigotes” value in data set [3] (setting [6]) is recorded as 2.76.

On to `CCCCCC1=C/C(=C/c2[nH]c(-c3ccc[nH]3)cc2OC)N=C1C` [Natural prodigiosin, prodigiosin], for which the IC50 is 5 ± 0.83 µM in data set [1] (Mus musculus, L929, read-out: IC50 (µM) L-929 cell growth inhibition, L-929); 6.02 ± 0.5 µM in data set [2] (read-out: IC50 (µM) Hep G2 cell growth inhibition, Hep G2); 0.54 ± 0.25 µM in data set [3] (read-out: IC50 (µM) in epimastigotes of T. cruzi, CLB strain, 72 h at 28 °C, mean ± SD). The “Cytotoxicity (% cell growth inhibition) at 1 µM ± SD” value in data set [2] (n = 9) came to 2.29 ± 3.97%. Also, the “Cytotoxicity (% cell growth inhibition) at 10 µM ± SD” value in data set [2] (Hep G2, 10 µM, n = 9, 10 µM) turned out to be 87.97 ± 5.94%. The “Selectivity index (SI), Epimastigotes” value in data set [3] (setting [6]) worked out at 9.25.

As to `COC1=CC(c2cc3ccccc3[nH]2)=N/C1=C\c1[nH]c(C)cc1C` [Obatoclax, reference compound], the IC50 in data set [1] (setting [4]) amounted to 5.83 ± 1.07 µM; in data set [2] (setting [5]) it was 8.18 ± 1.87 µM; in data set [3] (setting [7]), 3.46 ± 0.96 µM. The “Selectivity index (SI), Epimastigotes” value in data set [3] is recorded as 1.68.

As to `CCCCCC1=C/C(=C/c2[nH]c(-c3ccc[nH]3)cc2OC)N=C1C` [Synthetic prodigiosin, prodigiosin], in data set [1] (L-929, 16 µM, n = 9, 16 µM), the “% Cytotoxicity ± SD” value is 95.75 ± 0.06%. Further, the IC50 in data set [1] (read-out: IC50 (µM) L-929 cell growth inhibition, L-929) was found to be 3.06 ± 0.01 µM; in data set [2] (Homo sapiens, HepG2, read-out: IC50 (µM) Hep G2 cell growth inhibition, Hep G2), 5.15 ± 0.39 µM; in data set [3] (Trypanosoma cruzi, 72 h, read-out: IC50 (µM) in epimastigotes of T. cruzi, CLB strain, 72 h at 28 °C, mean ± SD) it was 0.46 ± 0.03 µM. Moreover, the “Cytotoxicity (% cell growth inhibition) at 1 µM ± SD” value in data set [2] (n = 9) is recorded as 15 ± 6.12%. Besides, the “Selectivity index (SI), Epimastigotes” value in data set [3] (setting [6]) is on record as 6.65.
